Values of other authors in patent US20100119622A1, “3H-BENZOOXAZOL-2-ONE MODULATORS OF D2 RECEPTOR AND/OR 5-HT1A RECEPTOR” (AUSPEX PHARMACEUTICALS, INC., priority 2008, published 2010).

Conditions: healthy subjects

O=c1[nH]c2cccc(N3CCN(Cc4cccc(-c5ccccc5)c4)CC3)c2o1 [Bifeprunox, 7-[4-[(3-Phenylphenyl)methyl]piperazin-1-yl]-3H-benzooxazol-2-one]
elimination half-life: 14 h
